For six molecules, T/C results are on record in PubChem BioAssay AID250 (DTP/NCI, 2004).

Structures are written as SMILES. Several values for one entry are separate records, joined by “and”; a condition that tells them apart may be missing. Identical values can stand only once. Toxic doses and inconclusive results are not listed.

The subject of the assay is BDF1 mice, L1210 leukemia sc, survival T/C. In words: NCI In Vivo Anticancer Drug Screen. Data for tumor model L1210 Leukemia (subcutaneous) in B6D2F1 (BDF1) mice. The note with it: higher = longer survival. In outline:
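Tumors were transplanted into mice, the animals were treated with compound, survival or tumor size was then measured, and treated values were divided by vehicle-control values.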

In the case of `COc1cccc2c1C(=O)c1c(O)c3c(c(O)c1C2=O)CC(O)(C(C)=O)CC3OC1CC(N)C(O)C(C)O1` (configuration not stated), the T/C is, setting by setting: (endpoint: median survival time, dose: 11.7 mg/kg/injection, schedule: Q04DX003 (ip), vehicle: saline) 90 % of control; (endpoint: median survival time, dose: 23.4 mg/kg/injection, schedule: Q04DX003 (ip), vehicle: saline) 94 % of control; (endpoint: median survival time, dose: 46.8 mg/kg/injection, schedule: Q04DX003 (ip), vehicle: saline) 91 % of control; (endpoint: median survival time, dose: 93.6 mg/kg/injection, schedule: Q04DX003 (ip), vehicle: saline) 91 % of control; (endpoint: median survival time, dose: 187.2 mg/kg/injection, schedule: Q04DX003 (ip), vehicle: saline) 90 % of control.

Consider `COc1ccc2nc3cc(Cl)ccc3c(NCCN(CCCl)CCCl)c2c1`, for which the T/C is 105 % of control (endpoint: median survival time, dose: 0.65 mg/kg/injection, schedule: Q01DX Z (sc), vehicle: methylcellulose (MC)) and 100 % of control (endpoint: median survival time, dose: 39.0 mg/kg/injection, schedule: Q01DX Z (sc), vehicle: methylcellulose (MC)).

As for `CN(Cc1cnc2nc(N)nc(N)c2n1)c1cccc(C(=O)NC(CCC(=O)O)C(=O)O)c1` (configuration not stated), the T/C reads like this: (endpoint: mean survival time, dose: 1.0 mg/kg/injection, schedule: Q01DX009 (ip), vehicle: sodium bicarbonate) 111 % of control; (endpoint: mean survival time, dose: 2.0 mg/kg/injection, schedule: Q01DX009 (ip), vehicle: sodium bicarbonate) 107 % of control; (endpoint: mean survival time, dose: 4.0 mg/kg/injection, schedule: Q01DX009 (ip), vehicle: sodium bicarbonate) 111 % of control; (endpoint: mean survival time, dose: 4.0 mg/kg/injection, schedule: Q04DX003 (ip), vehicle: sodium bicarbonate) 113 % of control; (endpoint: mean survival time, dose: 8.0 mg/kg/injection, schedule: Q01DX009 (ip), vehicle: sodium bicarbonate) 111 % of control; (endpoint: mean survival time, dose: 8.0 mg/kg/injection, schedule: Q04DX003 (ip), vehicle: sodium bicarbonate) 111 % of control. Further, the T/C was 114 % of control (endpoint: mean survival time, dose: 16.0 mg/kg/injection, schedule: Q01DX009 (ip), vehicle: sodium bicarbonate); 108 % of control (endpoint: mean survival time, dose: 16.0 mg/kg/injection, schedule: Q04DX003 (ip), vehicle: sodium bicarbonate); 108 % of control (endpoint: mean survival time, dose: 32.0 mg/kg/injection, schedule: Q04DX003 (ip), vehicle: sodium bicarbonate); 119 % of control (endpoint: mean survival time, dose: 64.0 mg/kg/injection, schedule: Q04DX003 (ip), vehicle: sodium bicarbonate).

For the molecule `CC(C)CN(N)C(N)=O`, the T/C (endpoint: median survival time, dose: 78.0 mg/kg/injection, schedule: Q01DX Z (sc), vehicle: saline) was 100 % of control; the T/C (endpoint: median survival time, dose: 130.0 mg/kg/injection, schedule: Q01DX Z (sc), vehicle: saline) is 100 % of control; the T/C (endpoint: median survival time, dose: 216.0 mg/kg/injection, schedule: Q01DX Z (sc), vehicle: saline) was 100 % of control; the T/C (endpoint: median survival time, dose: 360.0 mg/kg/injection, schedule: Q01DX Z (sc), vehicle: saline) is 111 % of control; the T/C (endpoint: median survival time, dose: 600.0 mg/kg/injection, schedule: Q01DX Z (sc), vehicle: saline) was 111 % of control.

Regarding `CCOS(C)(=O)=O`, the T/C is, setting by setting: (endpoint: median survival time, dose: 14.0 mg/kg/injection, schedule: Q01DX Z (sc), vehicle: saline) 100 % of control; (endpoint: median survival time, dose: 23.0 mg/kg/injection, schedule: Q01DX Z (sc), vehicle: saline) 95 % of control; (endpoint: median survival time, dose: 39.0 mg/kg/injection, schedule: Q01DX Z (sc), vehicle: saline) 100 % of control; (endpoint: median survival time, dose: 65.0 mg/kg/injection, schedule: Q01DX Z (sc), vehicle: saline) 90 % of control; (endpoint: median survival time, dose: 108.0 mg/kg/injection, schedule: Q01DX Z (sc), vehicle: saline) 95 % of control; (endpoint: median survival time, dose: 180.0 mg/kg/injection, schedule: Q01DX Z (sc), vehicle: saline) 90 % of control.

In the case of `Nc1ncn(C2OC(CO)C(O)C2O)c(=O)n1` (configuration not stated), the T/C is 105 % of control (endpoint: median survival time, dose: 0.5 mg/kg/injection, schedule: Q01DX009 (sc), vehicle: saline); 104 % of control (endpoint: median survival time, dose: 0.5 mg/kg/injection, schedule: Q03HX024 (sc), vehicle: saline); 155 % of control (endpoint: median survival time, dose: 0.75 mg/kg/injection, schedule: Q01DX009 (ip), vehicle: saline); 155 % of control (endpoint: median survival time, dose: 0.75 mg/kg/injection, schedule: Q01DX009 (sc), vehicle: saline); 110 % of control and 111 % of control (2×) (endpoint: median survival time, dose: 1.0 mg/kg/injection, schedule: Q01DX009 (sc), vehicle: saline); 118 % of control (endpoint: median survival time, dose: 1.0 mg/kg/injection, schedule: Q03HX024 (sc), vehicle: saline). Also, the T/C is 116 % of control and 119 % of control (endpoint: median survival time, dose: 1.0 mg/kg/injection, schedule: Q05DX009 (sc), vehicle: saline); 205 % of control (endpoint: median survival time, dose: 1.5 mg/kg/injection, schedule: Q01DX009 (ip), vehicle: saline); 200 % of control (endpoint: median survival time, dose: 1.5 mg/kg/injection, schedule: Q01DX009 (sc), vehicle: saline); 120 % of control and 121 % of control and 122 % of control (endpoint: median survival time, dose: 2.0 mg/kg/injection, schedule: Q01DX009 (sc), vehicle: saline); 100 % of control (endpoint: median survival time, dose: 2.0 mg/kg/injection, schedule: Q04DX003 (sc), vehicle: saline); 122 % of control and 123 % of control (endpoint: median survival time, dose: 2.0 mg/kg/injection, schedule: Q05DX009 (sc), vehicle: saline). Also, the T/C (endpoint: median survival time, dose: 3.0 mg/kg/injection, schedule: Q01DX009 (sc), vehicle: saline) was 172 % of control; the T/C (endpoint: median survival time, dose: 3.0 mg/kg/injection, schedule: Q04DX003 (sc), vehicle: saline) is 122 % of control; the T/C (endpoint: median survival time, dose: 4.0 mg/kg/injection, schedule: Q01DX001 (sc), vehicle: saline) is 100 % of control; the T/C (endpoint: median survival time, dose: 4.0 mg/kg/injection, schedule: Q03HX024 (sc), vehicle: saline) is 151 % of control; the T/C (endpoint: median survival time, dose: 4.0 mg/kg/injection, schedule: Q04DX003 (sc), vehicle: saline) is 100 % of control; the T/C (endpoint: median survival time, dose: 6.0 mg/kg/injection, schedule: Q01DX009 (ip), vehicle: saline) is 88 % of control. The T/C is, setting by setting: (endpoint: median survival time, dose: 6.0 mg/kg/injection, schedule: Q01DX009 (sc), vehicle: saline) 100 % of control; (endpoint: median survival time, dose: 6.0 mg/kg/injection, schedule: Q04DX003 (ip), vehicle: saline) 200 % of control; (endpoint: median survival time, dose: 6.0 mg/kg/injection, schedule: Q04DX003 (sc), vehicle: saline) 183 % of control; (endpoint: median survival time, dose: 8.0 mg/kg/injection, schedule: Q01DX001 (sc), vehicle: saline) 105 % of control; (endpoint: median survival time, dose: 8.0 mg/kg/injection, schedule: Q01DX009 (sc), vehicle: saline) 105 % of control; (endpoint: median survival time, dose: 8.0 mg/kg/injection, schedule: Q03HX024 (sc), vehicle: saline) 110 % of control. For the same molecule, the T/C (endpoint: median survival time, dose: 8.0 mg/kg/injection, schedule: Q04DX003 (sc), vehicle: saline) is 110 % of control; the T/C (endpoint: median survival time, dose: 12.0 mg/kg/injection, schedule: Q01DX001 (sc), vehicle: saline) is 155 % of control; the T/C (endpoint: median survival time, dose: 12.0 mg/kg/injection, schedule: Q04DX003 (ip), vehicle: saline) was 150 % of control; the T/C (endpoint: median survival time, dose: 12.0 mg/kg/injection, schedule: Q04DX003 (sc), vehicle: saline) was 150 % of control; the T/C (endpoint: median survival time, dose: 16.0 mg/kg/injection, schedule: Q01DX001 (sc), vehicle: saline) is 120 % of control; the T/C (endpoint: median survival time, dose: 16.0 mg/kg/injection, schedule: Q01DX009 (sc), vehicle: saline) is 108 % of control and 111 % of control. Besides, the T/C was 120 % of control (endpoint: median survival time, dose: 16.0 mg/kg/injection, schedule: Q04DX003 (sc), vehicle: saline); 111 % of control and 113 % of control (endpoint: median survival time, dose: 16.0 mg/kg/injection, schedule: Q05DX009 (sc), vehicle: saline); 155 % of control (endpoint: median survival time, dose: 24.0 mg/kg/injection, schedule: Q01DX001 (ip), vehicle: saline); 166 % of control (endpoint: median survival time, dose: 24.0 mg/kg/injection, schedule: Q01DX001 (sc), vehicle: saline); 105 % of control (endpoint: median survival time, dose: 24.0 mg/kg/injection, schedule: Q04DX003 (sc), vehicle: saline); 166 % of control (endpoint: median survival time, dose: 48.0 mg/kg/injection, schedule: Q01DX001 (ip), vehicle: saline). Moreover, the T/C was 166 % of control (endpoint: median survival time, dose: 48.0 mg/kg/injection, schedule: Q01DX001 (sc), vehicle: saline); 100 % of control (endpoint: median survival time, dose: 48.0 mg/kg/injection, schedule: Q04DX003 (ip), vehicle: saline); 122 % of control (endpoint: median survival time, dose: 48.0 mg/kg/injection, schedule: Q04DX003 (sc), vehicle: saline).
